Earlier results, collected in article PMC6017357, “In Vitro Inhibitory Effects of Synthetic Cannabinoid EAM-2201 on Cytochrome P450 and UDP-Glucuronosyltransferase Enzyme Activities in Human Liver Microsomes” (Molecules : A Journal of Synthetic Chemistry and Natural …, 2018).
Read-outs that look alike come from different tables or passages of the source.

Experiments:
[1] = target: T1, CYP2C9 (Homo sapiens, UniProt P11712); parameters: CYP2C8, CYP2C9, CYP2C19 and CYP3A4 activities in ultrapooled human liver microsomes were evaluated; from tissue; host or cells: ultrapooled human liver microsomes; method as in PMID 18838506; conditions: typical CYP2C9 mechanism-based inhibitors; cited from earlier work
[2] = target: T1, CYP2C9; conditions: read-out: Ki, CYP2C9-catalyzed diclofenac hydroxylation; mixed or competitive inhibition, human liver microsomes; cited from earlier work
[3] = human liver microsomes; cited from earlier work
[4] = target: T2, CYP2C19 (Homo sapiens, UniProt P33261); conditions: human liver microsomes; cited from earlier work
[5] = target: T3, CYP3A4 (Homo sapiens, UniProt P08684); conditions: read-out: Ki, CYP3A4 midazolam 1′-hydroxylation; competitive (AM-2201) and noncompetitive (MAM-2201) inhibition, human liver microsomes; cited from earlier work
[6] = target: T4, CYP2C8 (Homo sapiens, UniProt P10632); conditions: cited from earlier work; for time-dependent inhibition of CYP2C8 activity: human liver microsomes
T4 sequence (P10632 1-490): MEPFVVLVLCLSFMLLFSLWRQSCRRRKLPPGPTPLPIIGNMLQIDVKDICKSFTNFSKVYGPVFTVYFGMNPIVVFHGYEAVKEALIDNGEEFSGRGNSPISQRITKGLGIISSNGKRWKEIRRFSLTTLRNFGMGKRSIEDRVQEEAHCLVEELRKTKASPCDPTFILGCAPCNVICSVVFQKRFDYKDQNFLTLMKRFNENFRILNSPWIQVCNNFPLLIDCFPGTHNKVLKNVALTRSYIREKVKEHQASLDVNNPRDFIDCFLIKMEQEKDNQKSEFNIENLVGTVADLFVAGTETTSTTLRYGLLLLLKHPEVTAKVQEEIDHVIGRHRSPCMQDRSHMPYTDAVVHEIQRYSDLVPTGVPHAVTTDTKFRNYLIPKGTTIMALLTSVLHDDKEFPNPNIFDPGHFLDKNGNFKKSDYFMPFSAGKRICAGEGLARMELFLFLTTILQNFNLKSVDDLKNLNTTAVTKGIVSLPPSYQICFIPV

[7] = target: T5, UGT1A3 (Homo sapiens, UniProt P35503); conditions: human liver microsomes, cited from earlier work; for Ki: read-out: Ki, UGT1A3-catalyzed chenodeoxycholic acid 24-acyl glucuronidation
T5 sequence (P35503 29-534): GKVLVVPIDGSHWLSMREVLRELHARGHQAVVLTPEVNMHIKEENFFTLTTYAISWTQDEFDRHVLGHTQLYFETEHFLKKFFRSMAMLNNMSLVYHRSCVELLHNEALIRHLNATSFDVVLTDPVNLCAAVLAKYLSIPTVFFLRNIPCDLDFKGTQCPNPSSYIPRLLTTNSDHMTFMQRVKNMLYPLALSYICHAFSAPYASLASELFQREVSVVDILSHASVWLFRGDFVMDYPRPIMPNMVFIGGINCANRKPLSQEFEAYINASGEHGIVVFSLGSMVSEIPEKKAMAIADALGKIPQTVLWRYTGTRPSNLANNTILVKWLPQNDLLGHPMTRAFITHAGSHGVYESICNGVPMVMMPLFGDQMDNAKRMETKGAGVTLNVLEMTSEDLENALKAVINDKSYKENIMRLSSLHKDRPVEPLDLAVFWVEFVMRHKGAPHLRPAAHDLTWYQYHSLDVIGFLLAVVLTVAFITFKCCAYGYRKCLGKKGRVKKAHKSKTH

[8] = tested on: human recombinant CYP2C19; conditions: mixed-type inhibition, human recombinant CYP2C19 enzymes; read-out: Ki, [S]-mephenytoin hydroxylation activity; cited from earlier work
[9] = target: T3, CYP3A4; conditions: enzyme source not given; cited from earlier work
[10] = target: T4, CYP2C8; parameters: CYP2C8, CYP2C9, CYP2C19 and CYP3A4 activities in ultrapooled human liver microsomes were evaluated; from tissue; host or cells: ultrapooled human liver microsomes; method as in PMID 15304522; conditions: typical CYP2C8 inhibitors; cited from earlier work
[11] = target: T6, UGT2B7 (Homo sapiens, UniProt P16662); parameters: method as in PMID 23230132; conditions: human liver and intestinal microsomes; cited from earlier work
T6 construct: ultrapooled human liver microsomes (0.2 mg/mL), 5 mM UDPGA; from tissue; host or cells: ultrapooled human liver microsomes
T6 sequence (P16662 24-529): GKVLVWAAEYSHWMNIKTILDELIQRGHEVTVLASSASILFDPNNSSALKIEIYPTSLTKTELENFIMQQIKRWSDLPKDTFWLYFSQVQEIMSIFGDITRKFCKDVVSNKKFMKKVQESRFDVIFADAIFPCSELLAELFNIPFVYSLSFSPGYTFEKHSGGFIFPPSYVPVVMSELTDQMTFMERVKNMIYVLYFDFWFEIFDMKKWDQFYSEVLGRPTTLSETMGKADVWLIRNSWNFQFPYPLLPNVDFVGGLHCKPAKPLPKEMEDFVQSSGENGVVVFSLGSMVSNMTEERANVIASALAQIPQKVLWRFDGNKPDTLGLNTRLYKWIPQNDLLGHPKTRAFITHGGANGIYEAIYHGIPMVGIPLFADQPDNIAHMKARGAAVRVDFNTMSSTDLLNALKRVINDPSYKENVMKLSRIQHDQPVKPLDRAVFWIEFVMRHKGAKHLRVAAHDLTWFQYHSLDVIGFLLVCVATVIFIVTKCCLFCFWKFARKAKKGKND

[12] = tested on: human recombinant CYP3A4; conditions: competitive inhibition, human recombinant CYP3A4 enzymes; read-out: Ki, CYP3A4-catalyzed diltiazem N-demethylation; cited from earlier work
[13] = target: T7, UGT1A9 (Homo sapiens, UniProt O60656); parameters: method as in PMID 23230132; conditions: human liver and intestinal microsomes; cited from earlier work
T7 construct: ultrapooled human liver microsomes (0.2 mg/mL), 5 mM UDPGA; from tissue; host or cells: ultrapooled human liver microsomes
T7 sequence (O60656 26-530): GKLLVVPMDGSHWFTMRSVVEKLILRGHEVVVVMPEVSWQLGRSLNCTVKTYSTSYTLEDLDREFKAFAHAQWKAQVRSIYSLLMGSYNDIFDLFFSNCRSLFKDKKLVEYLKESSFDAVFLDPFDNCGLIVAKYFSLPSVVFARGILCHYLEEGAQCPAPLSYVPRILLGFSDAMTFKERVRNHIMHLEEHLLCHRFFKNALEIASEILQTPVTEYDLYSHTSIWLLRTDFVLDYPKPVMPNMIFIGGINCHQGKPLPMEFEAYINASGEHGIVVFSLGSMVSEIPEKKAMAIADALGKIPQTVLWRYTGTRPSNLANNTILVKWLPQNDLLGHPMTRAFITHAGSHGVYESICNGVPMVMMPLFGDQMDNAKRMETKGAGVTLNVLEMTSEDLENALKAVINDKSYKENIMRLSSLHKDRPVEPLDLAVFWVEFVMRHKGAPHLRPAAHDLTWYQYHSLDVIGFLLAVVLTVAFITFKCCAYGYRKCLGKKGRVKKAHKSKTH

[14] = target: T3, CYP3A4; conditions: human liver microsomes, time-dependent inhibitors with reported clinical drug–drug interaction; cited from earlier work
[15] = target: T2, CYP2C19; conditions: typical mechanism-based CYP2C19 inhibitors; cited from earlier work

T3 sequence (P08684 whole entry): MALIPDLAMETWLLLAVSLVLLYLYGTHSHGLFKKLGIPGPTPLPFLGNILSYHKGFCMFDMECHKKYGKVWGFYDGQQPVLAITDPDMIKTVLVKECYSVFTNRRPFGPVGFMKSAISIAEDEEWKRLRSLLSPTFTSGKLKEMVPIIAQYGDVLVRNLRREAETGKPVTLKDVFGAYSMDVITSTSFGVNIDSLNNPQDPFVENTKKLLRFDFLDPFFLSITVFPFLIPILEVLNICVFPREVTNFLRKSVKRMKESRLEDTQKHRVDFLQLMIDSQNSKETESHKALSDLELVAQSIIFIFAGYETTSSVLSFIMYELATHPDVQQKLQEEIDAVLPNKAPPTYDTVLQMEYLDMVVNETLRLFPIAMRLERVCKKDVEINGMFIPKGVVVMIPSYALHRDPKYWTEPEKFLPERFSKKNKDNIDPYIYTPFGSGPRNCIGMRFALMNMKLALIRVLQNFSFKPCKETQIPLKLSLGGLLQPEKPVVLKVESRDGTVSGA
T1 sequence (P11712 whole entry): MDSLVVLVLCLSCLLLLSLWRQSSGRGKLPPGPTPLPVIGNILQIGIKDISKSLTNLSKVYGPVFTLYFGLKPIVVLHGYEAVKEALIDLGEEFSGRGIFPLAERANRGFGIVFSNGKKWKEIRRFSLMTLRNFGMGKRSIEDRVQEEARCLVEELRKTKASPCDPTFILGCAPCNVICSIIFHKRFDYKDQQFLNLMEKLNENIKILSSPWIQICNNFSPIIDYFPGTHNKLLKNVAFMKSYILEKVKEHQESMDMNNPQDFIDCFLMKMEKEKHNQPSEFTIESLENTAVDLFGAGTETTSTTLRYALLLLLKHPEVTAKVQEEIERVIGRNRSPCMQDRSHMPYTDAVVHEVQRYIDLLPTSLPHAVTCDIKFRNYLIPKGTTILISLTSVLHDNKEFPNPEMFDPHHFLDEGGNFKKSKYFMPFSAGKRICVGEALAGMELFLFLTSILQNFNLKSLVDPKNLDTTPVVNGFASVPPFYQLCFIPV
T2 sequence (P33261 whole entry): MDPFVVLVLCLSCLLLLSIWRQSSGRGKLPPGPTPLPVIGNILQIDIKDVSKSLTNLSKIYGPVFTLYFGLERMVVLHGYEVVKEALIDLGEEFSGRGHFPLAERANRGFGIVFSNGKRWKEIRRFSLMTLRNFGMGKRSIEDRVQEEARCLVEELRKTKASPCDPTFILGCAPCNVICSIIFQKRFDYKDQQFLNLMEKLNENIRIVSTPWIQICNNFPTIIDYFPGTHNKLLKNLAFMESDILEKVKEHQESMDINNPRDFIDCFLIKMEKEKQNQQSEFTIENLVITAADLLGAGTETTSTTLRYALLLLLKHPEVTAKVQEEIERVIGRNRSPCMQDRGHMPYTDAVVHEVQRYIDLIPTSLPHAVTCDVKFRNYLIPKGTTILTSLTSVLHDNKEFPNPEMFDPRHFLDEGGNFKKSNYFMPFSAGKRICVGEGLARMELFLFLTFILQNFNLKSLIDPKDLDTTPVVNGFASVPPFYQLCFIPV

CC(C(=O)O)c1ccc(C(=O)c2cccs2)cc1 (racemic) [(±)-suprofen]
inactivation efficiency (kinact/Ki), CYP2C9 [1]: 18.3 M⁻¹ s⁻¹

O=C(c1cccc2ccccc12)c1cn(CCCCCF)c2ccccc12 [AM-2201]
Ki [2]: 3.9 µM
number of metabolites [3]: 19 metabolites
inhibition of CYP2C19-catalyzed [S]-mephenytoin hydroxylation [4]: did not inhibit
Ki [5]: 4 µM
inactivation efficiency (kinact/Ki), CYP2C8 [6]: 430 M⁻¹ s⁻¹
time-dependent inhibition of CYP2C8 activity [6]: exhibited time-dependent inhibition
Ki [7]: 4.3 µM

Cc1ccc(C(=O)c2cn(CCCCCF)c3ccccc23)c2ccccc12 [MAM-2201, (1-(5-fluoropentyl)-1H-indol-3-yl)(4-methyl-1-naphthalenyl)-methanone]
Ki [2]: 5.6 µM
number of metabolites [3]: 19 metabolites
inhibition of CYP2C19-catalyzed [S]-mephenytoin hydroxylation [4]: did not inhibit
Ki [5]: 5.4 µM
inactivation efficiency (kinact/Ki), CYP2C8 [6]: 1230 M⁻¹ s⁻¹
time-dependent inhibition of CYP2C8 activity [6]: exhibited time-dependent inhibition
Ki [7]: 5 µM

CCCCCc1cc(O)c2c(c1)OC(C)(C)[C@@H]1CCC(C)=C[C@@H]21 [THC, ∆9-tetrahydrocannabinol]
Ki [8]: 1.93 µM
Ki [2]: 1.31 µM
inhibition of CYP3A4 activity [9]: did not inhibit

CCCCc1oc2ccccc2c1C(=O)c1cc(I)c(OCCN(CC)CC)c(I)c1 [amiodarone]
inactivation efficiency (kinact/Ki), CYP2C8 [10]: 9.5 M⁻¹ s⁻¹

C=C(C)[C@@H]1CCC(C)=C[C@H]1c1c(O)cc(CCCCC)cc1O [cannabidiol]
inhibition of UGT2B7 activity [11]: inhibited
Ki [12]: 1 µM
Ki [8]: 0.793 µM
inhibition of UGT1A9 activity [13]: inhibited

CCCCCc1cc(O)c2c(c1)OC(C)(C)c1ccc(C)cc1-2 [cannabinol]
inhibition of UGT2B7 activity [11]: inhibited
inhibition of CYP3A4 activity [9]: did not inhibit
inhibition of UGT1A9 activity [13]: inhibited

CC[C@H]1OC(=O)[C@H](C)[C@@H](O[C@H]2C[C@@](C)(OC)[C@@H](O)[C@H](C)O2)[C@H](C)[C@@H](O[C@@H]2O[C@H](C)C[C@H](N(C)C)[C@H]2O)[C@](C)(OC)C[C@@H](C)C(=O)[C@H](C)[C@@H](O)[C@]1(C)O [clarithromycin]
inactivation efficiency (kinact/Ki), CYP3A4 [14]: 46.7 M⁻¹ s⁻¹

COC(=O)[C@H](c1ccccc1Cl)N1CCc2sccc2C1 [clopidogrel]
inactivation efficiency (kinact/Ki), CYP2C19 [15]: 65 M⁻¹ s⁻¹

CC1(C)[C@@H](O)CC[C@]2(C)[C@H]3C(=O)C=C4[C@@H]5C[C@@](C)(C(=O)O)CC[C@]5(C)CC[C@@]4(C)[C@]3(C)CC[C@@H]12 [glycyrrhetinic acid]
IC50 ([7]; read-out: IC50, UGT1A3-catalyzed chenodeoxycholic acid 24-acyl glucuronidation, selective UGT1A3 inhibitor): 4.3 µM

NNCCc1ccccc1 [phenelzine]
inactivation efficiency (kinact/Ki), CYP2C8 [10]: 52.2 M⁻¹ s⁻¹

O=C(O)COc1ccc(C(=O)c2cccs2)c(Cl)c1Cl [tienilic acid]
inactivation efficiency (kinact/Ki), CYP2C9 [1]: 142 M⁻¹ s⁻¹
